{
  "source": "patent US11324706B2",
  "about": "“Composition for inhibiting growth of breast cancer stem cells containing phenylacetaldehyde” (JEJU NATIONAL UNIVERSITY INDUSTRY-ACADEMIC COOPERATION …, priority 2016, dated 2022)",
  "key": {"MDA-MB-231 cells [1]": {"test_system": "MDA-MB-231 cells", "assay": "Analysis of apoptosis by fluorescent staining (Hoechst 33258)", "format": "cell-based, human", "details": "MDA-MB-231, Hoechst 33258 staining", "procedure": "(FIGS. 1D, E and F) show effects of PAA on apoptosis of breast cancer cells. MDA-MB-231 cells were treated with PAA for 24 hours, and apoptotic cells were analyzed by FACS using an Annexin V-PI staining kit. Caspase 3/7 activity in MDA-MB-231 cells was analyzed using a Caspase-Gloss 3/7 kit. By fluorescent staining, apoptotic cells were analyzed and nuclei thereof were stained with Hoechst 33258 in breast cancers (magnified, 200×) (FIG. 1);\nMDA-MB-231 cells were treated with 200 μm of PAA for 24 hours and were cultured in a Hoechst 33258 solution (10 mg/mL) at 37° C. for 30 minutes."}, "MDA-MB-231 cells [2]": {"test_system": "MDA-MB-231 cells", "assay": "Scratch migration assay", "format": "cell-based, human", "procedure": "Scratch curing of MDA-MB-231 cells was imaged at […] with or without PAA treatment;\nMDA-MB-231 cells were seeded on a 6-well plate to grow cells until confluence reached 90%. Scratch was created on the cell layer using a sterilized white micro-pipette tip. After washing with DMEM medium, breast cancer cells were treated with PAA or DMSO. 16 hours later, the scratch region was imaged with a 10× optical microscope."}, "MCF-7 cells": {"test_system": "MCF-7 cells", "assay": "Xenograft tumor model", "format": "in vivo, NOD-SCID (BALB/cSIc (nu/nu)) female nude mice", "procedure": "FIGS. 3A, 3B and 3C show effects of PAA on tumor growth in xenograft tumor models. 3 million cells were injected into breast fat pads of NOD-SCID female nude mice;\nThe dose of used drug is 10 mg/kg. 9 weeks later, the image was captured with Odyssey® image (LICOR, Pearl image system, USA). Using an IRDye 800 CW optical probe (2DG), a high grade of tumor was used to detect breast tumors at a channel of 800 nm and was represented by pseudo-color;\nA tumor growth curve was monitored during the test period;\nTumor volume was measured after initiation of treatment. * means p<0.05, as compared to control group. A representative image was captured at the end of 9 weeks of treatment. Results are shown as a vehicle-treated control group, a PAA-treated mouse and a Dox-treated mouse;\n24 NOD-SCID (BALB/cSIc (nu/nu)) female nude mice in total were divided into four groups producing breast cancer cells. Six mice as a negative control group were not subjected to chemotherapy. However, the volumes of tumors of control group mice were measured every three days using the Equation of (width^2×length)/2 (FIG. 3). PAA was administered at the optimal dose of 10 to 50 mg/kg to six other nude mice via breast fat pad injection. In addition, doxorubicin (Dox) was administered daily in a low dose of 10 mg/kg to other six nude mice as a positive control group via breast fat pad injection. The last group was used as a non-tumor group without treatment."}, "[3]": {"test_system": "MDA-MB-231 cell-derived mammospheres", "assay": "Mammosphere formation, MDA-MB-231-derived", "format": "cell-based, human", "details": "PAA 0.05 and 0.1 mM, 7 days", "procedure": "The mammospheres were cultured together with PAA (0.05 and 0.1 mM) or DMSO. MCF-7 and MDA-MBB-231 cells were treated with PAA and DMSO during the culture period of 7 days.\nHuman breast cancer cells, i.e., MCF-7 and MDA-MB-231, were commercially obtained from American Type Culture Collection (ATCC; Manassas, Va., USA). MCF-7 and MDA-MB-231 cells were cultured in Dulbecco's modified essential medium (DMEM; Hyclone, Logan, Utah, USA) containing 10% fetal bovine serum (FBS; Hyclone), 100 U/mL of penicillin, and 100 μg/mL of streptomycin (Hyclone). The MCF-7 and MDA-MB-231 cells were maintained at 37° C. in a 5% CO2-containing humidified incubator. The cells were plated at a density of 1×10^6 on a 10 cm petri dish. […]\nAt 7 days of culture, the cell culture plate was disposed on a scanner (Epson Perfection V700 PHOTO, Epson Korea, Co, Seoul, Korea) to obtain an 8 bit gray scale image of mammospheres. […] The background signal of the image was negated using a critical algorithm and the selected image was automatically counted. Regarding the mammosphere formation analysis, formation efficiency of mammospheres (MFE, %) was determined in accordance with the number of mammospheres per well/the total number of cells plated per well×100."}, "nuclear p65": {"test_system": "nuclear p65", "assay": "Western blotting of mammosphere nuclear proteins, p65", "format": "cell-based, human", "details": "MCF-7-derived mammospheres", "procedure": "The proteins isolated from mammospheres of PAA-treated MCF-7 were separated on 10% SDS-PAGE and transferred to a polyvinylidene difluoride membrane (Millipore, Bedford, Mass., USA). The membrane was blocked in 5% skim milk-containing PBS-Tween 20 (0.1%, v/v) for 30 minutes at room temperature. The blot was cultured at 4° C. in a blocking solution containing primary antibodies overnight. The used primary antibodies were as follows: Stat3, p65, Lamin B, and phospho-Stat3 (Cell Signaling, Beverly, Mass., USA). β-actin antibodies (Santa Cruz Biotechnology) were used as a loading control group. After washing with PBS-Tween 20 (0.1%, v/v), the blot was cultured in a horseradish peroxidase-conjugated secondary antibody and subjected to photosensitive treatment with a chemiluminescent detection kit (Santa Cruz Biotechnology).\nIn order to investigate cellular functions of PAA, STAT3 and NF-κB pathways were investigated in MCF-7-derived mammospheres subjected to treatment with PAA. As compared to the control group, PAA reduced phosphorylation of nuclear STAT3 proteins."}},
  "data": [
    {"smiles": "O=CCc1ccccc1", "note": "[PAA, phenylacetaldehyde]", "values": [
      {"measurement": "formation of apoptotic bodies", "setting": "MDA-MB-231 cells [1]", "value": "apoptotic bodies were formed"},
      {"measurement": "migration of MDA-MB-231 cells", "setting": "MDA-MB-231 cells [2]", "value": "concentration-dependently inhibited"},
      {"measurement": "tumor volume", "setting": "MCF-7 cells; compared with Doxorubicin positive control group (10 mg/kg)", "value": "less than that of Doxorubicin"},
      {"measurement": "tumor weight", "setting": "MCF-7 cells; compared with control group not treated with PAA", "value": "less than control group"},
      {"measurement": "tumor volume", "setting": "MCF-7 cells; compared with control group not treated with PAA, breast fat pad injection", "value": "less than that of a control group"},
      {"measurement": "number of primary mammospheres derived from MDA-MB-231 cells", "setting": "[3]", "value": "reduced"},
      {"measurement": "protein levels of nuclear p65", "setting": "nuclear p65", "value": "did not reduce"}
    ]}
  ]
}
